Key:
[1] = tested on: S. pneumoniae serotype 4 strain TIGR4; assay: Bacterial killing assay, S. pneumoniae; format: cell-based, Streptococcus pneumoniae; conditions: for Significance of the effect of PyB pre-treatment on antimicrobial efficacy (CFU reduction): S. pneumoniae TIGR4, 10 µM CPP–PNA, 200 µM PyB 10 min pre-treatment vs none, one-way ANOVA; for Change of antibacterial activity in the presence of PyB (non-significant trend): S. pneumoniae TIGR4, 200 µM PyB pre-treatment, related to proportion of positively charged residues of the CPP; for log CFU reduction: S. pneumoniae TIGR4, CPP-anti-gyrA PNA (10 µM in this experiment), without PyB
Description: S. pneumoniae serotype 4 strain TIGR4: after culturing, S. pneumoniae serotype 4 strain TIGR4 was diluted to approximately 10^5 CFU/mL in phosphate-buffered saline (PBS)/THY (95%/5%). S. pyogenes serotype M49 strain 591: An overnight culture of S. pyogenes serotype M49 strain 591 was diluted to approximately 10^5 CFU/mL in PBS/BHI (70%/30%). An amount of 400 µL of the respective bacterial suspension was transferred to a 2 mL polypropylene reaction tube. 4-(1-pyrenyl)-butyric acid (Merck, Darmstadt, Germany) was dissolved to 1 M in DMSO. The solution was stored in the dark and further dilution steps were performed in PBS and 3% DMSO. An amount of 50 µL PyB in PBS/DMSO was added to the bacterial suspension at a final concentration of 50–400 µM and pre-incubated for 10 min at 37 °C and 7 rpm (Rotor SB3, Stuart, Staffordshire, UK). An amount of 50 µL PBS served as a mock control. Following pre-incubation, 50 µL of CPP–PNA solution was added to a final concentration of 5–10 µM or as indicated. An amount of 50 µL molecular grade H2O served as a mock control. The reaction tubes were incubated for another 6 h at 37 °C and 7 rpm. Killing kinetics were observed over 12 h. Samples were collected at time points of 2–12 h following addition of CPP–PNAs, and bacteria were plated on BHI solid medium following serial dilution. Agar plates were incubated for 24 h at 37 °C under a 5% CO2 atmosphere and CFUs were counted. […] Each experiment was conducted at least three times in independent biological replicates.

[2] = tested on: S. pyogenes serotype M49 strain 591; assay: Bacterial killing assay, S. pyogenes; format: cell-based, Streptococcus pyogenes; conditions: 6 h; for log CFU reduction: S. pyogenes M49 591, 5 µM CPP–PNA, n = 5
Description: (§1) S. pneumoniae serotype 4 strain TIGR4: after culturing, S. pneumoniae serotype 4 strain TIGR4 was diluted to approximately 10^5 CFU/mL in phosphate-buffered saline (PBS)/THY (95%/5%). S. pyogenes serotype M49 strain 591: An overnight culture of S. pyogenes serotype M49 strain 591 was diluted to approximately 10^5 CFU/mL in PBS/BHI (70%/30%). An amount of 400 µL of the respective bacterial suspension was transferred to a 2 mL polypropylene reaction tube. 4-(1-pyrenyl)-butyric acid (Merck, Darmstadt, Germany) was dissolved to 1 M in DMSO. The solution was stored in the dark and further dilution steps were performed in PBS and 3% DMSO. An amount of 50 µL PyB in PBS/DMSO was added to the bacterial suspension at a final concentration of 50–400 µM and pre-incubated for 10 min at 37 °C and 7 rpm (Rotor SB3, Stuart, Staffordshire, UK). An amount of 50 µL PBS served as a mock control. Following pre-incubation, 50 µL of CPP–PNA solution was added to a final concentration of 5–10 µM or as indicated. An amount of 50 µL molecular grade H2O served as a mock control. The reaction tubes were incubated for another 6 h at 37 °C and 7 rpm. Killing kinetics were observed over 12 h. Samples were collected at time points of 2–12 h following addition of CPP–PNAs, and bacteria were plated on BHI solid medium following serial dilution. Agar plates were incubated for 24 h at 37 °C under a 5% CO2 atmosphere and CFUs were counted. The bacterial count at the beginning of the experiment was 1–3 × 10^5 CFU/mL. Each experiment was conducted at least three times in independent biological replicates.

[3] = tested on: S. pyogenes serotype M49 strain 591; assay: In vitro time killing assay (killing kinetics over 12 h); format: cell-based, Streptococcus pyogenes; conditions: n = 3
Description: as §1
Therefore, the kinetics of the antimicrobial activity of K8-conjugated anti-gyrA PNA in the presence of PyB were studied in an in vitro time killing assay in S. pyogenes. Bacteria were treated with 2.5 or 5 μM CPP-antisense PNAs or scrambled control PNAs (Figure 3) with or without pre-treatment with 100 µM PyB. Samples were collected at 2, 4, 6, and 12 h following antisense treatment. CFUs per milliliter were determined by plating of serial dilutions and plotted over time. Untreated bacteria grew by 1–1.5 log CFU over the course of the experiment. […] Following treatment with 2.5 µM K8-conjugated scPNA, no reduction in bacterial counts was observed throughout the experiment. Upon treatment with 5 µM K8-conjugated scPNA, growth was reduced by 0.6 log CFU in comparison to the untreated control, indicating an inhibitory effect of the CPP under these conditions. Overall, pre-treatment with PyB enhanced the activity of K8-anti-gyrA PNA and allowed the eradication of S. pyogenes in vitro.

O=C(O)CCCc1ccc2ccc3cccc4ccc1c2c34 [PyB, 4-(1-pyrenyl)-butyric acid, reference compound]
Toxicity of PyB (CFU/mL compared to untreated control) ([1]; S. pneumoniae TIGR4, 8 × 10^5 CFU/mL, PyB alone 50–400 µM, 6 h, stated up to 400 µM, n = 4): unaffected | Toxicity of PyB (CFU/mL compared to untreated control) ([2]; S. pyogenes 591, 5 × 10^5 CFU/mL, PyB alone 50–200 µM, stated up to 200 µM, n = 4): No significant toxicity | Viable counts after treatment with PyB ([2]; S. pyogenes, 200 µM PyB alone, n = 4): decreased slightly

KKKKKKKK-eg-attagactgt [K8-anti-gyrA scPNA, Oligolysin (K8) coupled to scrambled control PNA attagactgt, S. pyogenes]
Reduction in bacterial counts throughout the experiment ([3]; 2.5 µM scrambled control, 12 h): no reduction | Growth reduction in comparison to the untreated control ([3]; 5 µM scrambled control, 12 h course): 0.6 log CFU

KKKKKKKK-eg-tgcatttaag [K8-anti-gyrA PNA, Oligolysin (K8) coupled to anti-gyrA PNA tgcatttaag, S. pyogenes]
log CFU reduction ([2]; after pre-treatment with 100 µM PyB for 10 min): 4.8 log CFU | log CFU reduction ([2]; without PyB pre-treatment, PBS/BHI (70%/30%)): 3.7 log CFU | Time until clearance of S. pyogenes CFUs ([3]; 5 µM, after pre-treatment with 100 µM PyB): 12 h | Eradication of S. pyogenes during the course of the assay ([3]; 2.5 or 5 µM, without PyB, 12 h): not eradicated | Viable bacteria over time ([3]; 2.5 or 5 µM, without PyB, samples at 2, 4, 6, 12 h): constant decrease

RQIRIWFQNRRMRWRR-eg-tgcattaata [PenArg-anti-gyrA PNA, PenArg coupled to anti-gyrA PNA tgcattaata, S. pneumoniae]
Significance of the effect of PyB pre-treatment on antimicrobial efficacy (CFU reduction) ([1]; 6 h): no significant effect | Change of antibacterial activity in the presence of PyB (non-significant trend) [1]: not enhanced | log CFU reduction ([1]; 6 h): 3.3 log CFU

RRRRRRRRR-eg-tgcattaata [R9-anti-gyrA PNA, R9 coupled to anti-gyrA PNA tgcattaata, S. pneumoniae]
Significance of the effect of PyB pre-treatment on antimicrobial efficacy (CFU reduction) ([1]; 6 h): no significant effect | Change of antibacterial activity in the presence of PyB (non-significant trend) [1]: slightly increased | log CFU reduction ([1]; 6 h): 4 log CFU

RXRRXRRXRRXRXB-eg ^1 -tgcatttaag [(RXR)4XB-anti-gyrA PNA, (RXR)4XB coupled via eg linker to anti-gyrA PNA tgcatttaag, S. pyogenes]
Significance of the effect of PyB pre-treatment on antimicrobial efficacy (CFU reduction) ([1]; 6 h): did not significantly enhance | Change of antibacterial activity in the presence of PyB (non-significant trend) [1]: not enhanced

Reference: paper PMC10537354, “Pyrenebutyrate Enhances the Antibacterial Effect of Peptide-Coupled Antisense Peptide Nucleic Acids in Streptococcus pyogenes” (Microorganisms, 2023)
